Drawing on a melting point compilation (Tetko et al.; mined from patent text by program, amines drawn as free bases though some values may be those of a salt), this text covers melting point for 65 compounds.

Structures are written as SMILES.

For orientation: melting point means the temperature, or range, at which the solid turns liquid. For the compound `CCOC(=O)C(C)C(O)(c1ccc(OC)cc1)c1ccc(OC)cc1` (stereo not given), the melting point lay within 67 to 69 °C. Take `COC(=O)c1ccccc1S(=O)(=O)NC(=O)Nc1nc(C)c(C)c(C)n1`: the melting point was 152 to 161 °C.

Compound `Cc1cccc2c(=O)c3cccc(CBr)c3oc12` returned a melting point of 171 to 172 °C. `CCCCCCNC(=O)C=C(C)C=CC=C(C)C=Cc1c(C)cc(OC)c(C)c1C` registered a melting point of 157 to 158 °C. On to `Cc1cc2c(cc1OCCn1ccnc1)CC/C(=C\c1cccs1)C2=O`, for which the melting point lay in the range of 150 to 151 °C.

With `N#Cc1nn(-c2c(Cl)cc(C(F)(F)F)cc2Cl)c(Cl)c1C=C(Br)Br`, the melting point was in the range of 119 to 120 °C.

With `COc1cccc(C(=O)Nc2ccc3c(c2)CCC3=O)c1`, the melting point was in the range of 203 to 204 °C. Then `CC1(C)Oc2ccc(C#N)cc2C(Oc2ccc(O)nn2)C1O` (stereo not given), with 232 to 233 °C.

`Cn1cncc1C(c1ccc(Cl)cc1)c1ccc2c(c1)c(-c1ccccc1)cc(=O)n2C` (stereo not given) had a melting point of 96.8 °C. For `CNc1nc(NCc2ccc(NC(=O)C3CCN(Cc4ccccc4)CC3)cc2)c2ccc(C)cc2n1`, the melting point was found to be 128 °C. As to `CCN1C(=O)CN(C(=O)OCc2ccccc2)Cc2cc(OC)c([N+](=O)[O-])cc21`, the melting point was in the range of 55 to 56 °C. Then `CCN(CC)c1nsc(N)c1C#N`, with 87 to 88 °C.

In turn, `Clc1ccc(-c2c(Cc3nc4ccccc4s3)cnn2-c2ccccc2)cc1` returned a melting point of 135 to 137 °C. In turn, `CC(C)(C)OC(=O)N1CCN(C(=O)c2cc(C(F)(F)F)cc(C(F)(F)F)c2)[C@H](Cc2c[nH]c3ccccc23)C1` yielded a melting point of 155 to 156 °C. Then `CC(C)C(NC(=O)CN1C=Cc2c([nH]c3c(C(=O)O)cccc23)C1)C(=O)C(F)(F)F` (stereo not given), with 260 to 262 °C. Compound `CC(C)NC(=O)NC/C=C\COc1cc(CN2CCCCC2)ccn1` came in with a melting point of 90 to 92 °C. `CCc1ccc2c(c1)C(=O)CCCC(=O)N2`: the melting point was 138 to 140 °C. `COc1ccccc1-c1cc(C2CCN(Cc3ccc(Cl)cc3)CC2)n[nH]1` came in with a melting point of 102 to 103 °C.

Compound `O=C(Cl)c1cc(C#Cc2ccccc2)c(C(=O)Cl)cc1C#Cc1ccccc1` gave a melting point of 174 to 180 °C. With `Cc1[nH]c(=O)ccc1C#N`, the melting point was greater than 300 °C. For `COc1ccc(C2=NN(Cc3ccc(C(=O)NC4CCCC4)cc3)C(=O)CC2)cc1OC`, the melting point was 147 °C. `O=C(NC(=O)c1c(F)cccc1Cl)Nc1ccc(C(F)(F)F)c(F)c1`: the melting point came out at 200 °C. As to `Oc1cccc(-c2ccc3c(-c4cccnc4)coc3c2)c1`, the melting point lay within 205 to 207 °C.

The compound `CSc1ccc(-n2cnc(-c3ccc(F)cc3)c2-c2ccncc2)cc1` gave a melting point of 172 to 173 °C. In turn, `CCOC(C)=NOc1nc(C(F)(F)F)cc(=O)n1-c1cc(Oc2ccccc2[N+](=O)[O-])c(Cl)cc1F` showed a melting point of 152 to 155 °C.

Compound `O=P(NP(=S)(Oc1ccccc1)Oc1ccccc1)(Oc1ccccc1)Oc1ccccc1` gave a melting point of 103 to 105 °C. On to `CC(=O)Oc1c(Cl)cc(Cl)cc1C1(OC(C)=O)C(=O)c2ccccc2C1=O`, for which the melting point lay in the range of 178 to 180 °C. The compound `CS(=O)(=O)c1ccc(-c2nn(Cc3ccccc3)c(C(F)(F)F)c2-c2ccc(F)cc2)cc1` gave a melting point of 126 °C.

As to `CCCC1C(=O)N(S(=O)(=O)c2ccc3ccccc3c2)C2CCN(C(=O)CN3CCCCC3)C12` (stereo not given), the melting point is 161 to 163 °C. Take `NS(=O)(=O)c1cccc2cncn12`: the melting point fell in the range of 148 to 151 °C. `CNC(=O)Oc1ccc2[nH]cc(CCCN3CCN(c4ncncc4OC)CC3)c2c1` came in with a melting point of 120 to 122 °C. Then `COc1ccc(-c2c(C(=O)N3CCOCC3)ccc3cc(Cl)ccc23)cc1OC`, with 157 to 159 °C; and `CC(C)(C)c1cc(SCCSCCC(=O)O)cc(C(C)(C)C)c1O`, with 57.5 °C; and `Cc1nc2c(N)nc3ccccc3c2n1CCCOCCCc1ccccc1`, with 145 to 146 °C. In turn, `CC(=O)c1cc(N2CCOCC2)ccc1NC(=O)c1cccc2c1OCO2` registered a melting point of 150 to 152 °C. Consider `CC(c1cccs1)N(O)C(N)=O` (stereo not given), for which the melting point came to 130 °C.

`Brc1ccc2ccncc2c1` displayed a melting point of 78 to 79 °C. Compound `COc1ccccc1NC(=O)Nc1nc(Oc2ccc3ccccc3c2)nc(N(CCC(=O)O)Cc2cccc(Cl)c2)n1` displayed a melting point of 215 to 218 °C. The compound `CN1CCN(c2nc3c(cc2F)c(=O)c(C(=O)O)cn3C2CSC2)CC1` returned a melting point of 270 to 280 °C.

As to `FC(F)(F)c1cccc(Nc2nccc(-c3ccncc3)n2)c1`, the melting point was in the range of 197 to 198 °C. In the case of `O=[N+]([O-])c1cc(Br)cc(OCCF)c1`, the melting point lay in the range of 59 to 61 °C.

With `O=C1CCc2c(Br)cccc2C1`, the melting point is 62 °C. Then `NC(=O)N(O)CC(=O)N(Cc1cccs1)c1ccc(Br)cc1`, with 76 to 79.5 °C. Consider `O=C(NC1(C(=O)O)CCCCC1)OCc1ccccc1`, for which the melting point lay in the range of 152 to 154 °C.

Regarding `CC(=O)c1nc2c(OCc3ccccc3)cccc2n1C`, the melting point is 102 to 104 °C. Compound `COc1ccc2c(CC#N)c[nH]c2c1` yielded a melting point of 100 °C.

On to `CC(C)(C)OC(=O)N(C(=O)OC(C)(C)C)c1cnc(-c2cncc(F)c2)s1`, for which the melting point is 94 to 96 °C. As for `Cc1ccc(CCN2CCN(c3noc4ccccc34)CC2)c2c1C(C)(C)CC(=O)N2`, the melting point worked out at 170 °C. Turning to `O=c1ccccn1[C@@H]1C[C@H](O)[C@@H](O)[C@H]1O` (racemic), the melting point lay in the range of 138 to 140 °C.

In turn, `CS(=O)(=O)N1CCN([C@@H](CNS(=O)(=O)c2ccc(OCc3ccccc3)cc2)C(=O)NO)CC1` yielded a melting point of 165 °C. The compound `CCC(Oc1ccc(C(C)(C)CC)cc1C(C)(C)CC)C(=O)Nc1cc(O)c(NC(=O)c2ccccc2NS(C)(=O)=O)cc1Cl` (stereo not given) gave a melting point of 199 to 201 °C. Take `C=CCn1c(C)c(C)c2cnnc(CCc3ccc(F)cc3F)c21`: the melting point was 118 to 119 °C. `Cc1cc(C(=O)C(=O)O)c(O)cc1Oc1ccccc1` registered a melting point of 85 to 87 °C. `O=CNCC1CCc2ccccc2N(C=O)C1` (stereo not given): the melting point turned out to be 128 °C. `CC(C)(C)Cc1ccc(Oc2ccc(C(O)c3ccncc3)cc2)cc1` (stereo not given) had a melting point of 120 to 122 °C. Take `CCN(CC)C(=O)C=Cc1ccccc1`: the melting point was 65 °C. `COc1ccc(C=CC(=O)c2c(OC)cc(OC)cc2OC(=O)c2ccco2)cc1`: the melting point was 127 °C. Turning to `CCCN1CCC=C(c2cccc3[nH]cc(Br)c23)C1`, the melting point came out at 156 °C. `CCOC(=O)c1c(C)[nH]c(CC)c1CC` returned a melting point of 104 to 106 °C. In turn, `c1cc(-c2csnn2)ccn1` returned a melting point of 121 to 123 °C. Compound `CC(C)S(=O)(=O)c1cc(C#N)c(N)c(OCCCS(C)(=O)=O)c1` had a melting point of 142 to 143 °C. Turning to `COc1cc(CCC=CC(=O)CCC(=O)O)cc(OC)c1OC`, the melting point is 187 to 189 °C. Take `NC(=O)NCCCCCCNC(N)=O`: the melting point lay in the range of 197 to 200 °C.

`CNCCc1c[nH]c2ccc(Cn3cncn3)cc12` displayed a melting point of 139 to 141 °C. Then `NC(N)=Nc1nc(-c2nc(N)sc2C=NS(N)(=O)=O)cs1`, with greater than 300 °C.
